In US20220170028A1, “NOVEL INTERLEUKIN-2 VARIANTS AND BIFUNCTIONAL FUSION MOLECULES THEREOF” (Cugene Inc, priority 2019, published 2022):

Key:
[1] = system: KLH-induced DTH in Balb/C mice; test: KLH-induced delayed-type hypersensitivity (DTH) mouse model, ear thickness; assay type: in vivo; settings: 72 hours after KLH challenge, 4 consecutive daily dosing at 5 mg/kg i.p.
Method: The ability of Treg cells induced by IL-2 variants to suppress T cell antigen-driven inflammation in vivo was assessed in a model of delayed-type hypersensitivity (DTH). Female Balb/C mice (7-week old) were acclimated in house for 7 days and randomized into groups. Subcutaneous administration of vehicle (PBS), P-0511 at either 0.1 mg/kg or 0.3 mg/kg was initiated on day −2 and was given either once every 3 days (Q3D) for three injections or once every 5 days (Q5D) for two injections. Mice were then sensitized with a subcutaneous administration of 100 μg keyhole limpet hemocyanin (KLH) in 200 μl saline on day 0. For Q3D dosing, two more subcutaneous injections of PBS or P-0511 (0.1 or 0.3 mg/kg) were administered on days 1, and 4; for Q5D dosing, one additional s.c. injection of PBS, 0.1 or 0.3 mg/kg P-0511 was administered on day 3. Mice received an intradermal challenge of KLH (5 μg in 10 μl saline) in right ear on day 5. Right ear thickness was measured using a caliper on day 5 prior KLH challenge and daily from day 6 to day 9 corresponding to 24 h, 48 h, 72 h and 96 h post KLH challenge. One group of mice also received 5 mg/kg daily i.p. treatment of dexamethasone from day 5 to day 8 as a positive control.
Kinetics of the DTH response using the change in ear thickness relative to baseline values (Δ ear thickness) at various times after KLH challenge was illustrated in FIG. 23.

[2] = system: Treg cells; test: Treg proliferation and expansion in mice after a single subcutaneous injection (Example 9); assay type: in vivo, mouse; settings: 0.3 mg/kg single s.c., C57/BL6 mice; for stimulation of Treg cell proliferation and expansion in vivo (in words): days 3, 5, 7
Method: (§1) IL-2 variant Fc fusion proteins were administered to mice and their ability to preferentially proliferate and expand regulatory T cells (CD4+CD25+FoxP3+ T cells) over effector T cells and NK cells were determined in vivo.
(§2) Female C57/BL6 mice (7-week old) were received from Charles River Laboratory and acclimated in house for at least 7 days before the study. Vehicle (PBS), 0.3 mg/kg of each test compounds, or IL-2 benchmark compounds were subcutaneously administered to mice on day 0. Peripheral blood samples were collected into heparin-treated tubes on days 3, 5 and 7 post-treatment. Each group contained 6 mice and baseline blood was collected 2 days prior to the treatment (day −2). After red blood cell lysis, total viable mononuclear blood cells were counted by trypan blue dead cell exclusion method and proceeded to intracellular staining for immune cell phenotype and Ki67 proliferation markers using flow cytometric analysis. Cells were stained separately with two panels of antibodies as listed: 1) anti-mouse Foxp3-FITC, Ki67-PE, anti-mouse CD25-APC and anti-mouse CD4-Percpcy5.5 (1:50 dilution) for CD4+T-regulatory cells (Treg); 2) anti-mouse CD3-FITC, Ki67-PE, anti-mouse CD335-APC and anti-mouse CD8-Percpcy5.5 (1:50 dilution) for CD8+T and NK cells.

[3] = system: CD4+ Tconv cells, CD8 T cells and NK cells; test: Effector T cell and NK cell proliferation and expansion in mice after a single subcutaneous injection (Example 9); assay type: in vivo, mouse; settings: 0.3 mg/kg single s.c., C57/BL6 mice
Method: as §1, §2

[4] = system: Treg cells; test: Treg pharmacodynamics in mice after repeated administration Q3D (Example 11); assay type: in vivo, mouse; settings: after three consecutive Q3D treatments, 0.3 mg/kg s.c.
Method: Female Balb/C mice (7-week old) were acclimated in house for 5-7 days before the study. Vehicle (PBS), 0.3 mg/kg of P-0511, P-0512, P-0531, or Benchmark-1 compound were subcutaneously administered to mice (n=5/group) on days 0, 3, and 6. On days 3 and 9, three days after the first injection and multiple (3) injections, respectively, peripheral blood was collected. Based on earlier in vivo experiments, Treg cell activation, proliferation, and expansion were expected to peak on day 3, and thus three days post injection was selected for data collection and analysis. Changes in blood lymphocyte activation, proliferation, and expansion were measured by flow cytometry. P-0531 is the S125I equivalent of the wild type IL-2 fusion protein. The Benchmark-1 contains V91K mutation.

[5] = system: CD4+ Treg vs CD4+ Tconv cells; test: STAT5 phosphorylation, selectivity / activity profile Treg versus CD4+ Tconv cells, human PBMC; assay type: cell-based
Source text: (§3) Single amino acid substitutions were introduced to IL-2 at positions corresponding to amino acids interacting with receptor subunit(s) β or γ or βγ. These substitutions were aimed to reduce IL-2 signaling capacity through the intermediate affinity IL-2Rβγ complex and confer signaling specificity from the high affinity IL-2Rαβγ. IL-2 variants containing single amino acid substitutions were examined for their ability to differentially stimulate STAT5 phosphorylation in CD4 positive Treg and Tconv cells. STAT5 is known to be involved in the downstream signaling cascade upon IL-2 binding to the transmembrane IL-2 receptors. The phosphorylation of STAT5 in defined lymphocyte subpopulations was measured using fresh human peripheral blood mononuclear cells (PBMC) and the forkhead transcription factor FOXP3 was used to identify the Treg population in FACS analysis.
(§4) Briefly, human PBMC were isolated by Ficoll-Hypaque centrifugation from the buffy coat of a healthy donor. PBMC were starved in serum-free MACS buffer at 4° C. for 1 hour. 2×10^5 PBMC were then treated with serial dilutions of test compounds for 30 min at 37° C. Cells were fixed and permeabilized with Foxp3/Transcription Factor Staining Buffer Set (EBIO) by incubating with 1× Foxp3 fixation/permeabilization working solution for 30 minutes and washing with 1× permeabilization buffer. Cells were additionally fixed with Cytofix buffer and permeabilized with Perm Buffer III (BD Biosciences) and then washed. After blocking Fc receptors by adding human TruStain FcX (1:50 dilution), cells were stained with a mixture of anti-CD25-PE, anti-FOXP3-APC, anti-pSTAT5-FITC, and anti-CD4-PerCP-Cy5.5 antibodies at concentrations recommended by the manufacturer for 45 minutes at room temperature. Cells were collected by centrifugation, washed, resuspended in FACS buffer, and analyzed by flow cytometry. The flow cytometry data was gated into CD4+/Foxp3+/CD25^high and CD4+/Foxp3−/CD25^low groups for the Treg and CD4 conventional T cell subsets, respectively. Data are expressed as a percent of pStat5 positive cells in gated population.
The S125I substitution was then introduced into wild-type IL-2 or IL-2 variants that already harbored 1 or 2 mutations targeting receptor subunit(s) β or γ or βγ. The resulting IL-2 variants containing isoleucine at position 125 were tested for their ability to stimulate STAT5 phosphorylation in Treg and Tconv cells in comparison with their respective serine counterparts at position 125. Table 7 lists the potency and selectivity of IL-2 variants in Treg cells. The two molecules in the same row of Table 7 share the same other amino acid substitution(s) and differ only at position 125 with either serine or isoleucine.

[6] = Aggregate content by size-exclusion chromatography after Protein A purification; assay type: physicochemical; settings: Isoleucine-125 constructs; after MabSelectSure
Method: For affinity chromatography each supernatant was loaded on a HiTrap MabSelectSure column (CV=5 mL, GE Healthcare) equilibrated with 25 ml phosphate buffered saline, pH 7.2 (ThermoFisher). Unbound protein was removed by washing with 5 column volumes PBS, pH 7.2 and target protein was eluted with 25 mM sodium citrate, 25 mM sodium chloride, pH 3.2. Protein solution was neutralized by adding 3% of 1 M Tris pH 10.2. Ion exchange chromatography or mix-mode chromatography, including but not limited to CaptoMMC (GE Healthcare), ceramic hydroxyapatite, or ceramic fluoroapatite (Bio-Rad) was also utilized to polish the Protein A material as needed. Target protein was concentrated with an Amicon®Ultra-15 concentrator 10 KDa NMWC (Merck Millipore Ltd.)
The purity and molecular weight of the purified constructs were analyzed by SDS-PAGE with and in the absence of a reducing agent and staining with Coomassie (Imperial® Stain). The NuPAGE® Pre-Cast gel system (4-12% or 8-16% Bis-Tris, ThermoFisher) was used according to the manufacturer's instructions. The protein concentration of purified protein samples was determined by measuring the UV absorbance at 280 nm (Nanodrop Spectrophotometer, ThermoFisher) divided by the molar extinction coefficient calculated on the basis of the amino acid sequence. The aggregate content of the constructs was analyzed on an Agilent 1200 high-performance liquid chromatography (HPLC) system. Samples were injected onto an AdvanceBio size-exclusion column (300 Å, 4.6×150 mm, 2.7 μm, LC column, Agilent) using 150 mM sodium phosphate, pH 7.0 as the mobile phase at 25° C.
(§5) S125I substitution was thus introduced into a number of IL-2 variant Fc fusion molecules. The constructs harboring Ile-125 substitution in IL-2 were expressed using the same vector and in the same culturing conditions as their Ser-125 counterparts and purified using MabSelectSure. The expression level in mg/L and purity assessed by SEC chromatography in aggregation % of exemplary molecules are summarized in Table 6. The two molecules in the same row of Table 6 share the same other amino acid substitution(s) and differ only at residue 125 with either serine or isoleucine. As an example, the SEC chromatogram and SDS-PAGE pictures of P-0447 (SEQ ID NO: 173) and its Ile-125 counterpart P-0511 (SEQ ID NO: 213) were further illustrated in FIGS. 1D and 1E.

[7] = system: STAT5 phosphorylation in CD4+ Treg cells; test: STAT5 phosphorylation in CD4+ Treg cells, human PBMC assay by FACS; assay type: cell-based
Source text: as §3, §4

[8] = Transient expression level of IL-2 Fc fusion constructs in HEK-293F cells; settings: Isoleucine-125 constructs
Method: The constructs were produced by co-transfecting HEK293-F cells growing in suspension with the mammalian expression vectors using polyethylenimine (PEI, 25,000 MW linear, Polysciences). If there were two or more expression vectors, the vectors were transfected in a 1:1 ratio. For transfection, HEK293 cells were cultivated in serum free FreeStyle™ 293 Expression Medium (ThermoFisher). For production in 1000 ml shaking flasks (working volume 330 mL), HEK293 cells were seeded at a density of 0.8×10^6 cells/ml 24 hours before transfection. A total of 330 μg of DNA expression vectors were mixed with 16.7 ml Opti-mem Medium (ThermoFisher). After addition of 0.33 mg PEI diluted in 16.7 ml Opti-mem Medium, the mixture was vortexed for 15 sec and subsequently incubated for 10 min at room temperature. The DNA/PEI solution was then added to the cells and incubated at 37° C. in an incubator with 8% CO2. Sodium butyrate (Millipore Sigma) was added to the cells at day 4 at a final concentration of […] to help sustain protein expression. After 6 days cultivation, supernatant was collected for purification by centrifugation for 20 min at 2200 rpm. The solution was sterile filtered (0.22 μm filter, Corning). The secreted protein was purified from cell culture supernatants using Protein A affinity chromatography.
as §5

Compound: C[C@@H]1C[C@H]2[C@@H]3CCC4=CC(=O)C=C[C@]4(C)[C@@]3(F)[C@@H](O)C[C@]2(C)[C@@]1(O)C(=O)CO [dexamethasone, reference compound]
- inhibition of KLH-induced inflammatory response [1]: ~85%

Compound: Benchmark-3: benchmark Fc-IL-2 variant fusion protein containing N88D, SEQ ID NO: 199 [reference compound]
- stimulation of Treg cell proliferation and expansion in vivo (in words) [2]: not efficacious
- Ki67 stimulation on CD8 T cells and NK cells in vivo (in words) [3]: low effects

Compound: P-0514: IL-2 L19Q/S125I/Q126E Fc fusion, SEQ ID NO: 216
- Treg/Tconv ratio (Ki67 stimulation and cell counts) ([2]; all measured time points): most beneficial Treg/Tconv ratio
- stimulation of Treg cell proliferation and expansion in vivo (in words) [2]: stronger in vivo efficacy
- expansion of CD4+ Tconv cells, CD8 T cells or NK cells in vivo [3]: No significant expansion

Compound: P-0531: IL-2 S125I Fc fusion, S125I equivalent of wild type, SEQ ID NO: 167
- % Treg over total CD4 T cells or over total lymphocytes [4]: declined drastically to near control levels
- activity profile / selectivity window Treg over CD4+ Tconv (in words) [5]: without altering Treg selectivity
- Treg Selectivity ([5]; Isoleucine-125 constructs): Yes
- Aggregation % (SEC) [6]: 0.7%
- STAT5 phosphorylation activity in Treg cells (in words) [7]: slightly increased potency
- Expression [8]: 29.5 mg/L
